Test results from patent publication US20030166554A1, “Treatment of CNS disorders using D-amino acid oxidase and D-aspartate oxidase antagonists” (GENSET, S.A., priority 2001, published 2003).

Experiments:
[1] = system: PCP-induced hyperactivity in male Swiss mice; test: Locomotor hyperactivity induced by PCP in mice (open field); type: in vivo; details: 30 minute open field, mean +/- s.e.m.
Experimental: Randomized groups of 10 male Swiss mice (9 weeks old, Elevage Janvier; Le Genest-St-Isle, France) were used for each study.
Mice were group-housed and maintained in an incubator with controlled temperature (21-22° C.) and a reversed light-dark cycle (12 h/12 h) with food and water available ad libitum. All experiments were carried out in accordance with institutional guidelines.
It is well known to those skilled in the art that phencyclidine (PCP) intoxication in mice closely mimics schizophrenia and therefore is commonly used as an animal model of schizophrenia. In the following experiments, the ability of the DAO inhibitor, sodium benzoate, to reverse PCP-induced hyperactivity was monitored. PCP and the test compound, sodium benzoate, were diluted in a 0.9% sterile aqueous solution of sodium chloride (1 mg/ml). Sodium benzoate was administered by intraperitoneal injection (IP) 2 hours before administration of PCP (0.3 mg/kg by subcutaneous (SC) injection 15 minutes before start of the test). The animals were placed into an open field, which was divided into nine equal squares. A video track (Viewpoint system) was placed over a Plexiglas open field (OF; length 52 cm×52 cm; height 40 cm) and animal activity was recorded. Over a 30 minute time period, two parameters were recorded: (a) number of crossed squares and (b) total distance walked.
A global analysis of the data was performed using a one way ANOVA followed by a Dunnett's test if possible. The level of significance was set at p<0.05. Results were expressed was mean +/− standard error of the mean (s.e.m.).

hDAAO = biological target: T1, hDAAO (Homo sapiens, UniProt P14920); test: DAAO activity of combined yeast extracts expressing hDAAO and g34872; type: biochemical; details: D-serine, 37° C., FIG. 1
T1 construct: made in house; host or cells: Saccharomyces cerevisiae (YPH499 and FY1679-18B strains), pESC-Leu vector, galactose induction; crude extract
T1 sequence (P14920 whole entry): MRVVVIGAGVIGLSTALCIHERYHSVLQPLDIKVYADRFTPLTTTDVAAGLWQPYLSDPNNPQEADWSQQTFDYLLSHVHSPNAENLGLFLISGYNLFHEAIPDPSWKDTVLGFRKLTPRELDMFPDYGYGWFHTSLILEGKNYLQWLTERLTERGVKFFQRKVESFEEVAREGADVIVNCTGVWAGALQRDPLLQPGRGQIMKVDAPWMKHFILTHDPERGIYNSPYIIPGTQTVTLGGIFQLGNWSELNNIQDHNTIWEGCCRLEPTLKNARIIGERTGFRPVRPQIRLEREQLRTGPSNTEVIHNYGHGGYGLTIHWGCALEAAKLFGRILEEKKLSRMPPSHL
Experimental: (§1) The assay mixture was typically composed of D-serine (Aldrich) 200 mM, FAD (Sigma) at 0.1 mM, sodium phosphate buffer pH8 at 75 mM, HR-peroxidase (Sigma) 1U/ml. The mixture was air-saturated just before use. o-Dianizidine (Sigma) was added in the mixture. In the typical assay 5 μl of the enzyme (DAAO and mixes) was added to 25 μl of the assay mixture, the incubation was stopped with 50 μl of 20% H2SO4. The activity was observed as absorbance of the peroxidase-oxidized o-Dianizidine at 540 nm. The reactions containing high protein concentrations were centrifuged 15 min at 14000 rpm before absorbance measuring.
Yeast cells were transformed with the plasmids constructed in pESC-Leu expression vector. One plasmid can express hDAAO, second one—C-terminal tagged g34872, third—is the vector without insertion (control). After the induction of the expression (2% galactose in the medium) these cells were incubated for 24 h, than the extracts were maid and combined as follow: different volumes of DAAO extract were mixed with either g34872-cHis6 or with the vector extracts. The same volumes of DAAO extracts were also mixed with BSA (external control). After 30min of the pre-incubation the combined extracts were used for DAAO activity measuring. All yeast extracts and BSA solution had the same total protein concentration. DAAO activity was determined with D-serine at 37° C.

HR-peroxidase = test: Peroxidase control assay (hydrogen peroxide substrate); type: biochemical; details: conditions identical to DAAO assay
Text: The assay of peroxidase was done in the conditions identical to those for DAAO assay; hydrogen peroxide (Gibco) was used as a substrate, and no effect of g34872 on HRP activity was confirmed.

Pig kidney DAAO = biological target: T2, Pig kidney DAAO (Sus scrofa, UniProt P00371); test: DAAO kinetics in the presence of g34872 protein (D-serine substrate); type: biochemical; details: 20° C.
T2 construct: The crude preparation of pig kidney DAAO was purchased from Sigma; purchased Sigma; host or cells: pig kidney tissue; purified further in house (Sephadex G-50, DEAE-Sepharose, Ultragel AcA44)
T2 sequence (P00371 whole entry): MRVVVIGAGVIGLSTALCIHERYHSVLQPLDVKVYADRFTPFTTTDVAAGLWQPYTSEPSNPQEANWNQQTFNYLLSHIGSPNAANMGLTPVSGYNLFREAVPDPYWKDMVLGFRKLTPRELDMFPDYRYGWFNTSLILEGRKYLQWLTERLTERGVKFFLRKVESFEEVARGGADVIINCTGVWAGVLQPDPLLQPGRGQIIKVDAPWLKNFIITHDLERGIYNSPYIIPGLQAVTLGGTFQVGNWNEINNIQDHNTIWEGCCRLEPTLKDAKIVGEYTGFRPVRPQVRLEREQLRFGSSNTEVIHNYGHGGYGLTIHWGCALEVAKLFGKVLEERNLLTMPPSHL
Experimental: as §1
Pig kidney DAAO was mixed with g34872 in PBS and incubated 30 min at 20° C. DAAO concentration was 200 ng/μl and g34872 concentration was 2 μg/μl in the protein mixture. The control mixture (without g34872) was composed of 200 ng/μl DAAO and 2 μg/μl BSA. The enzymatic activity of DAAO was measured at 20° C. with D-serine, the substrate concentration used were from 0 to 100 mM, other corposants of the mixture and pH were standard.

[2] = PCP alone 0.3 mg/kg SC 15 minutes before test
[3] = sodium benzoate 400 mg/kg IP 2 hours before PCP 0.3 mg/kg SC

Molecule: c1ccc(C2(N3CCCCC3)CCCCC2)cc1 [PCP, phencyclidine]
- number of crossed squares [1, 2]: 977.0+/−64.6
- total distance walked [1, 2]: 18781.8+/−1447.5

Molecule: O=C([O-])c1ccccc1.[Na+] [sodium benzoate]
- total distance walked ([1]; sodium benzoate 125 mg/kg IP 2 hours before PCP 0.3 mg/kg SC): 14807.7+/−756.8
- number of crossed squares [1, 3]: 740.1+/−114.1
- total distance walked [1, 3]: 13521.0+/−1705.6

B1: g34872: purified recombinant g34872 protein, binding partner and activator of DAO (protein)
chain: HEDGYLEMAQRHLQRSLCPWVSYLPQPYAELEEVSSHVGKVFMARNYEFLAYEASKDRRQPLERMWTCNYNQQKDQSCNHKEITSTKAE
- effect on DAO activity (hDAAO): activates DAO
- effect on HRP activity (HR-peroxidase): no effect
- Km (Pig kidney DAAO; g34872&DAAO mix: DAAO 200 ng/μl, g34872 2 μg/μl, D-serine 0 to 100 mM): 4 mM
- effect of g34872 on DAAO (mode of action) (Pig kidney DAAO; pig kidney DAAO, D-serine): Allosteric Activator
